Literature values as cited in patent US20140328890A1, “Silver Iodate Compounds Having Antimicrobial Properties” (priority 2010, published 2014).

Conditions: published literature

[Ag+].[Ag+].[Ag+].[Ag+].[Ag+].[O-][I+]([O-])([O-])([O-])([O-])[O-] [Ag5IO6, pentasilver hexaoxoiodate]
sensitivity to light and air: insensitive to light and air
